Experimental data as given in ChEMBL document CHEMBL3638637, “Imidazo[1,2-Œ±]pyridine sulfonamides as TRPM8 modulators” (2015).

Molecular target: Transient receptor potential M8 protein (Canis lupus familiaris, UniProt Q1A7N1)
Assay: FLIPR Assay: The functional activity of compounds of the formula (I) was determined by measuring changes in intracellular calcium concentration using a Ca2+-sensitive fluorescent dye. The changes in fluorescent signal were monitored by a fluorescence plate reader, either a FLIPR (Molecular Devices) or FDSS (Hamamatsu). Increases in intracellular Ca2+ concentration were readily detected upon activation with icilin.At 24 hrs prior to assay, HEK293 cells stably expressing canine TRPM8 were seeded in culture medium in black wall, clear-base poly-D-lysine coated 384-well plates (BD Biosciences, NJ, USA) and grown overnight in 5% CO2 at 37° C. On assay day, growth media was removed and cells were loaded with Calcium 3 Dye (Molecular Devices) for 35 min at 37° C., under 5% CO2 and then for 25 min at room temperature and atmosphere.
Assay type: cell-based

Chain of Transient receptor potential M8 protein (Q1A7N1 whole entry): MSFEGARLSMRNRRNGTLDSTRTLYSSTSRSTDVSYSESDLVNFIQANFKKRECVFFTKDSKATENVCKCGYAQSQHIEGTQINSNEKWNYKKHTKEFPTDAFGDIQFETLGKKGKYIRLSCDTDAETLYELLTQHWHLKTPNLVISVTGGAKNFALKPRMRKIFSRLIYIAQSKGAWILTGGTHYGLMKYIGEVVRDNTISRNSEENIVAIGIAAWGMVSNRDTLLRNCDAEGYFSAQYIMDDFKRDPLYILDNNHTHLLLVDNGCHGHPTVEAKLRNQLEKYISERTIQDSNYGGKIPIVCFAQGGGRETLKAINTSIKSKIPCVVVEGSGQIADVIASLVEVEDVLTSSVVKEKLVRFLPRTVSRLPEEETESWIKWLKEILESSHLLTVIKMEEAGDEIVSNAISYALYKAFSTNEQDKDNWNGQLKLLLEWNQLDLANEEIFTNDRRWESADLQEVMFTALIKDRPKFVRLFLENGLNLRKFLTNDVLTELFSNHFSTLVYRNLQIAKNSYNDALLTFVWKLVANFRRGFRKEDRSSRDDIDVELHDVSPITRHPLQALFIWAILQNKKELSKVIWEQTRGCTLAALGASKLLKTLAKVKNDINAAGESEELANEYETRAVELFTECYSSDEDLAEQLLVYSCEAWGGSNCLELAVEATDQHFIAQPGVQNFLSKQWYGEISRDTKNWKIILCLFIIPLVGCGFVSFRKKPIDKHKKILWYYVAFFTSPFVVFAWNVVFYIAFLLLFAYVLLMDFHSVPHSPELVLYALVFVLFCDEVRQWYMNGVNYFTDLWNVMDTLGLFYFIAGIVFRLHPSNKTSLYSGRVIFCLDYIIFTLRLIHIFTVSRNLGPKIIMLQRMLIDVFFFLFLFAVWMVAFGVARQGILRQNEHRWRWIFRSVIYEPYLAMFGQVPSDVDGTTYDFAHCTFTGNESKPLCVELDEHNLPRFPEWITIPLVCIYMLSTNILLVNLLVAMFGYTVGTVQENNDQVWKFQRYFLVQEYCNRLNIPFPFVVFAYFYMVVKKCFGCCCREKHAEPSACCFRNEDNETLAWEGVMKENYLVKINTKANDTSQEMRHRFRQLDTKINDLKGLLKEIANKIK

With `Cc1c(N(Cc2ccc(F)c(C(F)(F)F)c2)S(=O)(=O)c2ccc(C(=O)O)cc2)nc2ccc(Cl)cn12` the IC50 was 34.9 nM.
